In patent US9744174B2 (DemeRx, Inc., priority 2013, dated 2017):
“Also recorded” adds a separate entry of the source.

Key:
[1] = varies with the pH of the urine; cited from earlier work
male Sprague Dawley rats = experiment: Noribogaine-methadone interaction study: mortality and postdose observations after oral dosing; conditions: rats; for Number Dead after Methadone: 10 dosed
[2] = as above; conditions: male, Sprague Dawley, rat, in vivo, po, methadone LD50, rats, oral
[3] = Ascending single-dose pharmacokinetics of noribogaine and noribogaine glucuronide (plasma, urine; LCMSMS); conditions: for AUC0-216 / AUC0-∞ / Cmax / Tmax / t1/2 / CL/F: mean (SD)
[4] = system: healthy, drug-free male volunteers; experiment: Safety and tolerability: adverse events, vital signs, ECG; type: in vivo, human
Protocol: (§1) Safety and tolerability of noribogaine were tested in the group of volunteers from Example 2. […] Safety evaluations included clinical monitoring, recording of adverse events (AEs), safety laboratory tests, vital signs, ECG telemetry from −2 h to 6 h after dosing, and 12-lead electrocardiograms (ECGs) up to 216 hours post-dosing.

mu receptor = conditions: Pearl et al., Brain Research, 675:342-344 (1995); read-out: affinity constant (K value) for the mu receptor; cited from earlier work
[5] = system: opioid-dependent participants; experiment: Efficacy trial: time to resumption of opioid substitution treatment (OST); type: in vivo, human
Protocol: (§2) The efficacy of noribogaine in humans was evaluated in opioid-dependent participants in a randomized, placebo-controlled, double-blind trial. […] See U.S. Provisional Application No. 61/852,485, filed Mar. 15, 2013, which is incorporated herein by reference in its entirety.
(§3) In the first cohort, six patients were orally administered a single dose of 60 mg noribogaine, and three patients received placebo. In the second cohort, five patients were orally administered a single dose of 120 mg noribogaine, and three patients received placebo.

[6] = system: opioid-dependent participants; experiment: QT interval prolongation in the efficacy trial; type: in vivo, human
Protocol: as §2, §3

[7] = system: healthy, drug-free male volunteers; experiment: Cold pressor test (analgesic effect); type: in vivo, human; conditions: single oral 3-60 mg; duration of hand immersion and VAS pain scores vs placebo
Protocol: Analgesic effect was assessed based on duration of hand immersion in ice water and on visual analog scale (VAS) pain scores upon hand removal from the water bath.
as §1

[8] = system: healthy, drug-free male volunteers; experiment: Pupillometry (pupillary miosis) after single oral dose; type: in vivo, human; conditions: single oral 3, 10, 30 or 60 mg, up to 216 hours post-dosing
Protocol: Pulse oximetry and capnography data were collected continuously using a GE Carescape B650 monitoring system from 2 hours prior to dosing and until six hours after dosing, and thereafter at 12, 24, 48 and 72 hours post-dosing. […] Pupillary miosis was assessed by pupillometry.

[9] = plasma noribogaine glucuronide after single oral 30 mg noribogaine
[10] = plasma noribogaine glucuronide after single oral 60 mg noribogaine
[11] = plasma noribogaine, single oral 3 mg
[12] = plasma noribogaine, single oral 10 mg
[13] = plasma noribogaine, single oral 30 mg
[14] = plasma noribogaine, single oral 60 mg
[15] = oral, noribogaine 50 mg/kg then methadone 0 mg/kg (vehicle)
[16] = oral, noribogaine 150 mg/kg then methadone 0 mg/kg (vehicle)

## CC=C1N(C)C(C)CC1(c1ccccc1)c1ccccc1 (centres unmarked) [EDDP, 2-ethylidene-1.5-dimethyl-3.3diphenylpyrrolidine]
[1]
  Urinary excretion (percentage of a dose): 3-25%

## CCC(=O)C(CC(C)N(C)C)(c1ccccc1)c1ccccc1 (centres unmarked) [Methadone, reference compound]
[1]
  Urinary excretion (percentage of a dose): 5-50%
Male Sprague Dawley rats; oral, noribogaine 0 mg/kg then methadone 1 mg/kg (table; b148: 10 mg/kg)
  Number Dead after Methadone: 0
Male Sprague Dawley rats; oral, noribogaine 0 mg/kg then methadone 3 mg/kg (table; b148: 30 mg/kg)
  Number Dead after Methadone: 1
Male Sprague Dawley rats; oral, noribogaine 0 mg/kg then methadone 5 mg/kg (table; b148: 50 mg/kg)
  Number Dead after Methadone: 3
Male Sprague Dawley rats; oral, methadone alone at 10 mg/kg
  Persistence of slight languid behavior: 1.75 h
Male Sprague Dawley rats; oral, methadone alone at 50 mg/kg
  Postdose observations: prostrate, had tremors, shallow respirations
Male Sprague Dawley rats; oral, methadone at doses of 30 and 50 mg/kg
  Persistence of adverse observations following the methadone dose: 3 h
Male Sprague Dawley rats; oral, within one hour following methadone alone at 10 and 30 mg/kg
  Postdose observations: slight ataxia, salivation, hunched posture, and languid behavior
[2]; after 0 mg/kg of noribogaine
  LD50: 68.2 mg/kg
[2]; after 50 mg/kg of noribogaine
  LD50: 29.7 mg/kg
[2]; after 150 mg/kg of noribogaine
  LD50: 8.86 mg/kg

## CC[C@H]1C[C@@H]2C[C@H]3c4[nH]c5ccc(OC6OC(C(=O)O)C(O)C(O)C6O)cc5c4CCN(C2)[C@@H]13 (some centres unmarked) [Noribogaine glucuronide]
[3]; both dose groups (30 mg, 60 mg)
  Proportion of noribogaine glucuronide Cmax and AUC relative to noribogaine: 3-4%
[3]; [9]
  AUC0-216: 25.7 (9.1) ng · hr/ml
  AUC0-∞: 25.8 (9.3) ng · hr/ml
  Cmax: 1.8 (0.6) ng/ml
  Tmax: 3.0 (0.6) hr
  t1/2: 20.6 (4.9) hr
[3]; [10]
  AUC0-216: 65.0 (21.5) ng · hr/ml
  AUC0-∞: 67.1 (21.9) ng · hr/ml
  Cmax: 4.1 (1.2) ng/ml
  Tmax: 3.8 (1.2) hr
  t1/2: 23.1 (3.0) hr
[3]; plasma noribogaine glucuronide, 30 mg and 60 mg dose groups
  Time of peak concentrations after noribogaine dosing: 3 to 4 h
[3]; plasma noribogaine glucuronide, 30 mg and 60 mg noribogaine dose groups
  Time by which detected in all subjects: ≤ 0.75 h

## CC[C@H]1C[C@H]2C[C@H]3c4[nH]c5ccc(O)cc5c4CCN(C2)[C@@H]13 [Noribogaine]
[4]; 3 mg dose group, two subjects
  Number of adverse events reported: five
[4]; 10 mg dose group, single subject
  Number of adverse events reported: one
[4]; 30 mg dose group, single subject
  Number of adverse events reported: one
[4]; Dose 3 mg
  Adverse events, Mild: Dizziness; also recorded: Epistaxis; also recorded: Headache; also recorded: Back pain
  Adverse events, Moderate: Headache
[4]; Dose 10 mg
  Adverse events, Mild: Headache
[4]; Dose 30 mg
  Adverse events, Mild: Headache
[4]; one subject dosed with 10 mg, 24 hours post-dosing
  Single increase in QTcF: > 60 ms
[4]; single oral 3-60 mg
  Oximetry, capnography, respiratory rate: no changes in oximetry or capnography, or changes in respiratory rate
  Vital signs and safety laboratory tests: no changes in vital signs or safety laboratory tests of note
[4]; single oral 3-60 mg, at any time
  QTcF values: ≤ 500 ms
Mu receptor
  Ki: 2.66 µM
[5]; 60 mg to 180 mg, inverted-U curve
  Therapeutic activity: therapeutic activity at all concentrations
[5]; 120 mg presumed treated patients, estimated from FIG. 4 profile
  Estimated serum noribogaine level at which significant withdrawal symptoms return and OST is resumed: 50 to 60 ng/mL
[5]; 180 mg, 6 presumed (imputed) noribogaine-treated patients
  Average time to resumption of OST: approximately 11.4 hours
[5]; (putatively) administered 60 mg noribogaine
  Time to resumption of OST: 9.6 h
[5]; second cohort, blinded: single oral 120 mg noribogaine (5 patients) or placebo (3)
  Average time to resumption of opioids: approximately 22 hours
[5]; single oral 60 mg or 120 mg
  Adverse effects, including hallucinatory effects: No adverse effects
[3]; noribogaine, 3-60 mg, linear regression
  Dose-proportionality of Cmax and AUC: increased linearly with dose
[3]; noribogaine, across dose groups 3-60 mg
  Time of peak concentrations after oral dosing: 2 to 3 h
[3]; noribogaine, single oral 3 mg
  CL/F: 41.4 (7.0) L/h
[3]; noribogaine, single oral 10 mg
  CL/F: 42.3 (12.0) L/h
[3]; noribogaine, single oral 30 mg
  CL/F: 46.9 (16.4) L/h
[3]; noribogaine, single oral 60 mg
  CL/F: 34.0 (11.4) L/h
[3]; [11]
  AUC0-216: 72.2 (13.2) ng · hr/ml
  Cmax: 5.2 (1.4) ng/ml
  Tmax: 1.9 (0.6) hr
  t1/2: 40.9 (8.7) hr
[3]; [12]
  AUC0-216: 251.4 (78.5) ng · hr/ml
  Cmax: 14.5 (2.1) ng/ml
  Tmax: 2.9 (1.8) hr
  t1/2: 49.2 (11.5) hr
[3]; [13]
  AUC0-216: 677.6 (221.1) ng · hr/ml
  Tmax: 1.8 (0.6) hr
  t1/2: 27.6 (7.0))^ hr
[3]; [14]
  AUC0-216: 1935.4 (725.4) ng · hr/ml
  Tmax: 2.4 (0.6) hr
  t1/2: 29.1 (9.3) hr
Male Sprague Dawley rats; [15]
  Number Dead after Methadone: 0
  % Dead after Methadone: 0%
Male Sprague Dawley rats; [16]
  Number Dead after Methadone: 0
  % Dead after Methadone: 0%
Male Sprague Dawley rats; oral, noribogaine 150 mg/kg then methadone 0 mg/kg (vehicle), listed as noribogaine
  Number Dead after Methadone: no deaths
Male Sprague Dawley rats; oral, approximately 5 hours following noribogaine at 50 mg/kg, a few animals
  Postdose observations: languid behavior and tremors involving the entire body
Male Sprague Dawley rats; oral, approximately 5 hours following noribogaine at 150 mg/kg
  Postdose observations: Salivation, languid behavior, and ataxia
Male Sprague Dawley rats; oral, following noribogaine 50 and 150 mg/kg
  Postdose observations: slight ataxia, salivation (slight or severe), and hunched posture
Male Sprague Dawley rats; oral, noribogaine 50 mg/kg
  Percentage of animals with observations of ataxia and salivation: 30-40%
Male Sprague Dawley rats; oral, noribogaine 150 mg/kg
  Percentage of animals with observations of ataxia and salivation: 60-70%
Male Sprague Dawley rats; oral, noribogaine 50 and 150 mg/kg, before methadone
  Persistence of observations following dosing: up to 4 hours
Male Sprague Dawley rats; oral, noribogaine alone
  Persistence of adverse observations following dosing: 6.5 to 7 h
Male Sprague Dawley rats; oral, noribogaine at doses of 0, 50, and 150 mg/kg followed by the interaction article vehicle
  Mortality: no mortality
Male Sprague Dawley rats; oral noribogaine at doses of 50 and 150 mg/kg
  Effect on mortality associated with oral methadone: potentiates the mortality
[6]; 180 mg
  Change in the QT interval prolongation: above 30 ms
[6]; first cohort (60 mg noribogaine or placebo)
  Mean prolongation of the QT interval: less than 10 ms
[6]; second cohort (120 mg noribogaine or placebo)
  Mean prolongation of the QT interval: less than 40 ms
[7]
  Analgesic effect in the cold pressor test: no analgesic effect
[8]
  Pupillary constriction (pupil diameter): no evidence of pupillary constriction

## CC[C@H]1CC2C[C@H]3c4[nH]c5ccc(OC)cc5c4CCN(C2)C13 [ibogaine, reference compound]
Mu receptor
  Ki: 11 µM
